From patent US11591355B2 (Peloton Therapeutics, Inc., priority 2017, dated 2023)
pIC50: −log10 of the molar value.

Key:
Human CD73 = biological target: T1, Human CD73 (Homo sapiens, UniProt P21589); test: CD73 Enzyme Assay; assay type: biochemical; conditions: 0.25 nM hCD73, 25 μM AMP, kinetic read at 360 nm; read-out: CD73 Enzyme Assay IC50
T1 construct: purchased R&D Systems; host or cells: CHO cells
T1 sequence (P21589 27-549): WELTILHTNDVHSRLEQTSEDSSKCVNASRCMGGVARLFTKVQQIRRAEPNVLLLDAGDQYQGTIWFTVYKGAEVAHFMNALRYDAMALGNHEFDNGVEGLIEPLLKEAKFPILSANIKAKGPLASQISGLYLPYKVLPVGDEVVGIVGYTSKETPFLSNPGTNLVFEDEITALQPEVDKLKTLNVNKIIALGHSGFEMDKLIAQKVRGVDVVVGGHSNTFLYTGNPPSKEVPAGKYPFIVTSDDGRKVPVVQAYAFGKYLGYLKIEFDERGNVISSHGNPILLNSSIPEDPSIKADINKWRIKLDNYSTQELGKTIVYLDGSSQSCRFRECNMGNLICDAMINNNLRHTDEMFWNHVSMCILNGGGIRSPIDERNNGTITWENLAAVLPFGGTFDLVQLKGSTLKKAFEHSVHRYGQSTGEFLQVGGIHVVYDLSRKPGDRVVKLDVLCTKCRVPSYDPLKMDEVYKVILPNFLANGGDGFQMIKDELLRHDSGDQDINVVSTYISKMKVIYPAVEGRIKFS

[1] = biological target: T2, CD73 on U138 human neuroglioma cells (Homo sapiens, UniProt P21589); test: CD73 Cell-Based Assay; conditions: U138 cells, AMP substrate, 2 hours at 37° C., inorganic phosphate by malachite green
T2 construct: U138 cells were obtained from ATCC and cultured in DMEM with 10% FBS; host or cells: U138 human neuroglioma cells
T2 sequence (P21589 27-549): T1 sequence (P21589 27-549)
Method: U138 human neuroglioma cells were used in these experiments. U138 cells were obtained from ATCC and cultured in DMEM with 10% FBS. 2500 cells were seeded into 96-well plate with 100 μL of media the day before the experiment. Cells were washed twice with 200 μL of assay buffer (20 mM HEPES, pH 7.4; 137 mM NaCl; 5.4 mM KCl; 1.3 mM CaCl2); 4.2 mM NaHCO3; 1 mg/mL glucose) to remove residual inorganic phosphate. After washing, 100 μL of buffer was added to each well, then 100 μL of a mixture of AMP substrate (200 μM) and diluted compound was added to each well. The cells were incubated at 37° C. (with 5% CO2) for 2 hours. 50 μL of supernatant was transferred to a 96-well assay plate and the concentration of inorganic phosphate was determined using malachite green reagent (R&D System; Cat: DY996).

Structure (SMILES)	pIC50 (Human CD73)	pIC50 [1]
C[C@@H](Nc1nc(C#N)nc2c1ccn2[C@@H]1O[C@H](COCP(=O)(O)O)[C@@H](O)[C@H]1O)c1cccc(F)c1 [Compound 81, [(2R,3S,4R,5R)-5-[2-cyano-4-[[(1R)-1-(3-fluorophenyl)ethyl]-amino]pyrrolo[2,3-d]-pyrimidin-7-yl]-3,4-dihydroxy-tetrahydro-furan-2-yl]methoxy-methylphosphonic acid]	> 8.00	> 8.00
C[C@@H](Nc1nc(Cl)nc2c1ccn2[C@@H]1O[C@H](COCP(=O)(O)O)[C@@H](O)[C@H]1O)c1cccc(F)c1 [Compound 82, [(2R,3S,4R,5R)-5-[2-chloro-4-[[(1R)-1-(3-fluorophenyl)ethyl]-amino]pyrrolo[2,3-d]-pyrimidin-7-yl]-3,4-dihydroxy-tetrahydro-furan-2-yl]methoxy-methylphosphonic acid]	7.00 to 8.00	> 8.00
O=P(O)(O)COC[C@H]1O[C@@H](n2ccc3c(NC4CC(F)(F)C4)nc(Cl)nc32)[C@H](O)[C@@H]1O [Compound 83, [(2R,3S,4R,5R)-5-[2-chloro-4-[(3,3-difluoro-cyclobutyl)amino]-pyrrolo[2,3-d]-pyrimidin-7-yl]-3,4-dihydroxy-tetrahydro-furan-2-yl]methoxy-methylphosphonic acid]	> 8.00	> 8.00
CC[C@H](Nc1nc(Cl)nc2c1ccn2[C@@H]1O[C@H](COCP(=O)(O)O)[C@@H](O)[C@H]1O)c1ccccc1 [Compound 84, [(2R,3S,4R,5R)-5-[2-chloro-4-[[(1S)-1-phenylpropyl]amino]-pyrrolo[2,3-d]-pyrimidin-7-yl]-3,4-dihydroxy-tetrahydro-furan-2-yl]methoxy-methylphosphonic acid]	> 8.00	> 8.00
CC(C)[C@H](Nc1nc(Cl)nc2c1ccn2[C@@H]1O[C@H](COCP(=O)(O)O)[C@@H](O)[C@H]1O)c1ccccc1 [Compound 85, [(2R,3S,4R,5R)-5-[2-chloro-4-[[(1S)-2-methyl-1-phenyl-propyl]amino]pyrrolo-[2,3-d]pyrimidin-7-yl]-3,4-dihydroxy-tetrahydrofuran-2-yl]methoxymethyl-phosphonic acid]	> 8.00	> 8.00
Nc1nc(Cl)nc2c1ccn2[C@@H]1O[C@H](COCP(=O)(O)O)[C@@H](O)[C@H]1O [Compound 86, [(2R,3S,4R,5R)-5-(4-amino-2-chloro-pyrrolo[2,3-d]-pyrimidin-7-yl)-3,4-dihydroxy-tetrahydro-furan-2-yl]methoxy-methylphosphonic acid]	6.00 to 7.00	6.00 to 7.00
C[C@@H](Nc1nc(Cl)nc2c1ccn2[C@@H]1O[C@H](COCP(=O)(O)O)[C@@H](O)[C@H]1O)c1ccccc1F [Compound 87, [(2R,3S,4R,5R)-5-[2-chloro-4-[[(1R)-1-(2-fluorophenyl)ethyl]-amino]pyrrolo[2,3-d]-pyrimidin-7-yl]-3,4-dihydroxy-tetrahydro-furan-2-yl]methoxy-methylphosphonic acid]	> 8.00	> 8.00
C[C@@H](Nc1nc(C#N)nc2c1ccn2[C@@H]1O[C@H](COCP(=O)(O)O)[C@@H](O)[C@H]1O)c1ccccc1F [Compound 88, [(2R,3S,4R,5R)-5-[2-cyano-4-[[(1R)-1-(2-fluorophenyl)ethyl]-amino]pyrrolo[2,3-d]-pyrimidin-7-yl]-3,4-dihydroxy-tetrahydro-furan-2-yl]methoxy-methylphosphonic acid]	> 8.00	> 8.00
C[C@@H](Nc1nc(Cl)nc2c1ccn2[C@@H]1O[C@H](COCP(=O)(O)O)[C@@H](O)[C@H]1O)c1ccc(C#N)cc1 [Compound 89, [(2R,3S,4R,5R)-5-[2-chloro-4-[[(1R)-1-(4-cyanophenyl)ethyl]-amino]pyrrolo[2,3-d]-pyrimidin-7-yl]-3,4-dihydroxy-tetrahydro-furan-2-yl]methoxy-methylphosphonic acid]	> 8.00	> 8.00
Cc1ccc([C@H](C)Nc2nc(Cl)nc3c2ccn3[C@@H]2O[C@H](COCP(=O)(O)O)[C@@H](O)[C@H]2O)cc1 [Compound 90, [(2R,3S,4R,5R)-5-[2-chloro-4-[[(1S)-1-(p-tolyl)ethyl]amino]-pyrrolo[2,3-d]-pyrimidin-7-yl]-3,4-dihydroxy-tetrahydro-furan-2-yl]methoxy-methylphosphonic acid]	> 8.00	> 8.00
Cc1ccc([C@H](C)Nc2nc(C#N)nc3c2ccn3[C@@H]2O[C@H](COCP(=O)(O)O)[C@@H](O)[C@H]2O)cc1 [Compound 91, [(2R,3S,4R,5R)-5-[2-cyano-4-[[(1S)-1-(p-tolyl)ethyl]amino]-pyrrolo[2,3-d]-pyrimidin-7-yl]-3,4-dihydroxy-tetrahydro-furan-2-yl]methoxy-methylphosphonic acid]	> 8.00	> 8.00
CC(C)Nc1nc(Cl)nc2c1ccn2[C@@H]1O[C@H](COCP(=O)(O)O)[C@@H](O)[C@H]1O [Compound 92, [(2R,3S,4R,5R)-5-[2-chloro-4-(isopropyl-amino)pyrrolo[2,3-d]-pyrimidin-7-yl]-3,4-dihydroxy-tetrahydro-furan-2-yl]methoxy-methylphosphonic acid]	> 8.00	> 8.00
CN(C)c1nc(Cl)nc2c1ccn2[C@@H]1O[C@H](COCP(=O)(O)O)[C@@H](O)[C@H]1O [Compound 93, [(2R,3S,4R,5R)-5-[2-chloro-4-(dimethyl-amino)pyrrolo[2,3-d]-pyrimidin-7-yl]-3,4-dihydroxy-tetrahydro-furan-2-yl]methoxy-methylphosphonic acid]	> 8.00	7.00 to 8.00
C[C@@H](Nc1nc(Cl)nc2c1ccn2[C@@H]1O[C@H](COCP(=O)(O)O)[C@@H](O)[C@H]1O)c1ccc(Cl)cc1 [Compound 94, [(2R,3S,4R,5R)-5-[2-chloro-4-[[(1R)-1-(4-chlorophenyl)ethyl]-amino]pyrrolo[2,3-d]-pyrimidin-7-yl]-3,4-dihydroxy-tetrahydro-furan-2-yl]methoxy-methylphosphonic acid]	> 8.00	> 8.00
C[C@@H](Nc1nc(C#N)nc2c1ccn2[C@@H]1O[C@H](COCP(=O)(O)O)[C@@H](O)[C@H]1O)c1ccc(C#N)cc1 [Compound 95, [(2R,3S,4R,5R)-5-[2-cyano-4-[[(1R)-1-(4-cyanophenyl)ethyl]-amino]pyrrolo[2,3-d]-pyrimidin-7-yl]-3,4-dihydroxy-tetrahydro-furan-2-yl]methoxy-methylphosphonic acid]	7.00 to 8.00	7.00 to 8.00
CNc1nc(Cl)nc2c1ccn2[C@@H]1O[C@H](COCP(=O)(O)O)[C@@H](O)[C@H]1O [Compound 96, [(2R,3S,4R,5R)-5-[2-chloro-4-(methyl-amino)pyrrolo[2,3-d]-pyrimidin-7-yl]-3,4-dihydroxy-tetrahydro-furan-2-yl]methoxy-methylphosphonic acid]	6.00 to 7.00	6.00 to 7.00
CC(C)Nc1nc(C#N)nc2c1ccn2[C@@H]1O[C@H](COCP(=O)(O)O)[C@@H](O)[C@H]1O [Compound 97, [(2R,3S,4R,5R)-5-[2-cyano-4-(isopropyl-amino)pyrrolo[2,3-d]-pyrimidin-7-yl]-3,4-dihydroxy-tetrahydro-furan-2-yl]methoxy-methylphosphonic acid]	7.00 to 8.00	> 8.00
CCNc1nc(Cl)nc2c1ccn2[C@@H]1O[C@H](COCP(=O)(O)O)[C@@H](O)[C@H]1O [Compound 98, [(2R,3S,4R,5R)-5-[2-chloro-4-(ethylamino)-pyrrolo[2,3-d]-pyrimidin-7-yl]-3,4-dihydroxy-tetrahydro-furan-2-yl]methoxy-methylphosphonic acid]	7.00 to 8.00	7.00 to 8.00
O=P(O)(O)COC[C@H]1O[C@@H](n2ccc3c(NC4CCOCC4)nc(Cl)nc32)[C@H](O)[C@@H]1O [Compound 99, [(2R,3S,4R,5R)-5-[2-chloro-4-(tetrahydro-pyran-4-ylamino)-pyrrolo[2,3-d]-pyrimidin-7-yl]-3,4-dihydroxy-tetrahydro-furan-2-yl]methoxy-methylphosphonic acid]	7.00 to 8.00	7.00 to 8.00
O=P(O)(O)COC[C@H]1O[C@@H](n2ccc3c(N4CCOCC4)nc(Cl)nc32)[C@H](O)[C@@H]1O [Compound 100, [(2R,3S,4R,5R)-5-(2-chloro-4-morpholino-pyrrolo[2,3-d]-pyrimidin-7-yl)-3,4-dihydroxy-tetrahydro-furan-2-yl]methoxy-methylphosphonic acid]	7.00 to 8.00	7.00 to 8.00
